In PubChem BioAssay (NCI) one finds GI50 and TGI data, which are given here for 7 molecules.

Values joined by “and” are separate entries in the source; they are usually repeats but may differ in a detail not shown here. Equal entries are not always repeated.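 Each compound was tested at five concentrations against cells in 96-well plates for 48 hours. The concentration for 50% growth inhibition is given as GI50. Definition used: TGI = concentration required for complete inhibition of growth.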 Where only a bound is given, the exact number is not on record here.

Some test systems named below: ACHN renal; HOP-92 NSCLC; MALME-3M melanoma; MDA-MB-435; MOLT-4 leukemia; NCI-H460 lung; SNB-19 CNS; SW-620 colon; TK-10 renal; U251 CNS.
Common to all, as to experiment: NCI-60 cell line screen, 48 h

Consider `FC(F)(F)c1cc(NC2=NCCN=C(Nc3cc(C(F)(F)F)cc(C(F)(F)F)c3)SS2)cc(C(F)(F)F)c1`, for which the GI50 in the assay with ACHN renal was 2.6 µM; with HOP-92 NSCLC it was 1.52 µM; in the assay on MALME-3M melanoma, 4.12 µM; in the assay on MDA-MB-435, 3.83 µM; in the assay on MOLT-4 leukemia, 4.71 µM; in the assay on NCI-H460 lung it was 3.7 µM. Moreover, the GI50 with SNB-19 CNS was 4.08 µM; with SW-620 colon, 3.71 µM; in the assay with TK-10 renal it was 5.25 µM; in the assay with U251 CNS, 2.82 µM. Besides, the TGI was found to be 8.93 µM with ACHN renal; 5.01 µM in the assay with HOP-92 NSCLC; 15.5 µM with MALME-3M melanoma; 14.1 µM in the assay with MDA-MB-435; 28 µM in the assay with MOLT-4 leukemia; 14.2 µM in the assay on NCI-H460 lung. Further, the TGI in the assay with SNB-19 CNS was determined as 15.4 µM; with SW-620 colon it was 14.8 µM; with TK-10 renal, 19.8 µM; in the assay with U251 CNS it was 10.7 µM.

For `N#Cc1ccc2c(c1)C(=O)c1c-2n(CCCN=[N+]=[N-])c(=O)c2cc([N+](=O)[O-])ccc12`, the GI50 was 5.28 µM in the assay on ACHN renal; 5.55 µM in the assay with HOP-92 NSCLC; over 50 µM in the assay on MALME-3M melanoma; over 50 µM with MDA-MB-435; 1.8 µM in the assay with MOLT-4 leukemia; 1.11 µM in the assay with NCI-H460 lung. For the same molecule, the GI50 with SNB-19 CNS is 33 µM; in the assay with SW-620 colon it was 3.5 µM; in the assay on TK-10 renal it was over 50 µM; in the assay with U251 CNS, 4.49 µM. Moreover, the TGI is over 50 µM in the assay on ACHN renal; 40.1 µM in the assay with HOP-92 NSCLC; over 50 µM in the assay on MALME-3M melanoma; over 50 µM with MDA-MB-435; 9 µM in the assay with MOLT-4 leukemia; over 50 µM in the assay with NCI-H460 lung. In addition, the TGI with SNB-19 CNS, in the assay on SW-620 colon, with TK-10 renal and in the assay on U251 CNS was over 50 µM in each case.

With `Cc1cc(S(=O)(=O)Nc2nc3cc(-c4ccsc4)sc3c(=O)n2N)c(S)cc1Cl`, the GI50 in the assay with ACHN renal was 30.4 µM; in the assay with HOP-92 NSCLC, over 100 µM; in the assay on MALME-3M melanoma, over 100 µM; in the assay with MDA-MB-435, 85.3 µM; in the assay on MOLT-4 leukemia, 68 µM; with NCI-H460 lung, 31.4 µM. In addition, the GI50 with SNB-19 CNS is 86 µM; in the assay on SW-620 colon, over 100 µM; in the assay with TK-10 renal it was over 100 µM; in the assay with U251 CNS, 34.1 µM. The TGI in the assay on ACHN renal, in the assay on HOP-92 NSCLC, with MALME-3M melanoma, with MDA-MB-435, in the assay on MOLT-4 leukemia and with NCI-H460 lung was over 100 µM in each case. Besides, the TGI in the assay with SNB-19 CNS, with SW-620 colon, with TK-10 renal and with U251 CNS was over 100 µM in each case.

As for `N#CC1CCc2c(c(-c3cn[nH]c3C(F)(F)F)nc3c(F)cc4[nH]ncc4c23)C1` (stereo not given), the GI50 in the assay on ACHN renal is 8.21 µM; in the assay with HOP-92 NSCLC, 4.42 µM; in the assay with MALME-3M melanoma, 3.31 µM; with MDA-MB-435, 4.43 µM; in the assay on MOLT-4 leukemia it was 3.49 µM; with NCI-H460 lung, 11.8 µM. In addition, the GI50 was 5.53 µM with SNB-19 CNS, 3.47 µM in the assay on SW-620 colon, 6.28 µM with TK-10 renal and 15.1 µM with U251 CNS. The TGI in the assay on ACHN renal came out at 75.1 µM; in the assay with HOP-92 NSCLC, 26.5 µM; in the assay on MALME-3M melanoma, 11.5 µM; with MDA-MB-435, 41.1 µM; in the assay on MOLT-4 leukemia it was 42.7 µM; in the assay on NCI-H460 lung, 38.8 µM. Moreover, the TGI with SNB-19 CNS was 61.5 µM; in the assay on SW-620 colon it was 38 µM; with TK-10 renal it was 57.9 µM; in the assay with U251 CNS, over 100 µM.

`CC[C@H](C)[C@H](NC(=O)c1nccn1C)C(=O)N(C)[C@H](C[C@@H](OC(C)=O)c1nc(C(=O)N[C@@H](Cc2ccccc2)C[C@H](C)C(=O)OC)cs1)C(C)C`: the GI50 is 2.06 µM with ACHN renal; 4.86 µM in the assay on HOP-92 NSCLC; 5.87 µM in the assay on MALME-3M melanoma; 0.0944 µM with MDA-MB-435; 1.65 µM with MOLT-4 leukemia; 1.22 µM with NCI-H460 lung. For the same molecule, the GI50 in the assay with SNB-19 CNS is 1.28 µM; in the assay on SW-620 colon it was 1.33 µM; in the assay on TK-10 renal, 7.49 µM; in the assay with U251 CNS, 1.38 µM. Further, the TGI in the assay with ACHN renal is over 33.3 µM; in the assay on HOP-92 NSCLC, over 33.3 µM; in the assay on MALME-3M melanoma, over 33.3 µM; in the assay with MDA-MB-435 it was 0.428 µM; in the assay with MOLT-4 leukemia, over 33.3 µM; with NCI-H460 lung, over 33.3 µM. Moreover, the TGI in the assay with SNB-19 CNS, with SW-620 colon, in the assay on TK-10 renal and in the assay on U251 CNS was over 33.3 µM throughout.

In the case of `CC(C)(F)C[C@H](N[C@@H](c1ccc(-c2ccc(S(C)(=O)=O)cc2)cc1)C(F)(F)F)C(=O)NC1(C#N)CC1`, the GI50 with ACHN renal is > 55 µM and 39.5 µM; with HOP-92 NSCLC, 5.81 µM and 7.42 µM; with MALME-3M melanoma it was 17.5 µM and 22.2 µM; with MDA-MB-435 it was over 100 µM; in the assay on MOLT-4 leukemia, over 100 µM; in the assay with NCI-H460 lung it was 33.6 µM and 49.7 µM. Also, the GI50 in the assay on SNB-19 CNS is 16.6 µM and 18.3 µM; in the assay with SW-620 colon it was over 100 µM; in the assay with TK-10 renal, > 55 µM and 31.1 µM; in the assay on U251 CNS it was 17.9 µM and 30.3 µM. Also, the TGI with ACHN renal was over 100 µM; with HOP-92 NSCLC, 30.3 µM and 28.4 µM; with MALME-3M melanoma, 55 µM and 62 µM; in the assay with MDA-MB-435 it was over 100 µM; with MOLT-4 leukemia it was over 100 µM; in the assay with NCI-H460 lung it was 55 µM and > 100 µM. Moreover, the TGI with SNB-19 CNS was 55 µM and 62.2 µM; in the assay with SW-620 colon it was over 100 µM; with TK-10 renal, > 55 µM and 81.2 µM; in the assay with U251 CNS, 55 µM and > 100 µM.

Consider `CC(=O)Nc1cc2cc(NS(=O)(=O)c3cc(C(F)(F)F)cc(C(F)(F)F)c3)ccc2oc1=O`, for which the TGI in the assay on ACHN renal, in the assay on HOP-92 NSCLC, in the assay on MALME-3M melanoma, in the assay with MDA-MB-435, in the assay on MOLT-4 leukemia and with NCI-H460 lung was over 100 µM each time. Further, the TGI with SNB-19 CNS, in the assay on SW-620 colon, in the assay with TK-10 renal and in the assay on U251 CNS was over 100 µM throughout.
